How the values were obtained:
Format in all cases: cell-based, Saccharomyces cerevisiae
[1] = tested on: transformed budding yeast AH22-RsOS1; assay: Antifungal compound sensitivity test, transformed budding yeast AH22-RsOS1 (Example 19); details: 30° C. 29.8 hours, relative value in percentage
Experimental: (§1) The transformed budding yeast AH22-RsOS1 prepared in Example 18 was cultured while shaking at 30° C. for 18 hours in a Glu-Leu medium. As a control, the AH22 strain was similarly cultured while shaking at 30° C. for 18 hours in a Glu medium. The absorbance at 600 nm of each grown transformed budding yeast in a cell suspension was measured, and cell suspension diluted with sterilized distilled water to the absorbance of 0.1 was prepared. Further, a cell suspension in which the aforementioned cell suspension of the transformed budding yeast AH22-RsOS1 was diluted 50-fold with a Glu-Leu medium, and a cell suspension in which the aforementioned cell suspension of the AH22 strain was diluted 50-fold with a Glu medium were prepared.
(§2) A solution in which each of Compounds (1) to (5) was dissolved in dimethylsulfoxide (DMSO) to the concentration of 600 ppm, and a solution in which Compounds (6) and (7) was dissolved in dimethylsulfoxide (DMSO) to the concentration of 60 ppm were prepared, and two microplates were prepared in which each 1.0 μL per well of the Compound solution and DMSO as a control were dispensed. In one microplate among them, each 100 μL of cell suspensions of the transformed budding yeast AH22-RsOS1 which had been prepared by dilution as described above was dispensed, and cultured by allowing to stand at 30° C. for 29.8 hours. In another microplate, each 100 μL of cell suspensions of the control yeast AH22 strain which had been prepared by dilution as described above was dispensed, and cultured by allowing to stand at 30° C. for 24.8 hours. After culturing, the absorbance at 600 nm of each well was measured with a microplate reader.
(§3) A degree of growth of the transformed budding yeast is expressed as a relative value in percentage, letting the absorbance at 600 nm at the concentration of the Compound of 0 ppm to be 100. It was confirmed that an inhibiting degree of growth of the transformed budding yeast TM182-RsOS1 by each test substance was grater than an inhibiting degree of growth of the transformed budding yeast AH22-RsOS1 by each test substance, and the transformed budding yeast TM182-RsOS1 was a transformed cell with the enhanced sensitivity to an antifungal compound as compared with the transformed budding yeast AH22-RsOS1.

AH22 strain = assay: Antifungal compound sensitivity test, control yeast AH22 strain (Example 19); details: 30° C. 24.8 hours, relative value in percentage
Experimental: as §1, §2, §3

[2] = tested on: transformed budding yeast TM182-HIK1; assay: Antifungal compound sensitivity test of transformed budding yeast TM182-HIK1 (Example 9); details: 30° C. 27 hours; for Degree of growth of budding yeast (%) TM182-HIK1 Gal-Ura-Leu medium: control medium
Experimental: Similarly, the transformed budding yeast TM182-HIK1 prepared in Example 8 was cultured at 30° C. for 24 hours in a Glu-Ura-Leu medium. The absorbance at 600 nm of a cell suspension of the grown transformed budding yeast was measured, and a cell suspension diluted with each medium to the absorbance of 0.1 was prepared. Further, a cell suspension in which the aforementioned cell suspension of the transformed budding yeast TM182-HIK1 was diluted 50-fold with a Glu-Ura-Leu medium and, as a control, a cell suspension in which the suspension was diluted 50-fold with a […] prepared. A suspension in which each of Compounds (1) to (3) was dissolved in dimethylsulfoxide (DMSO) to the concentration of 200 ppm, a solution in which each of Compounds (4) and (5) was dissolved in dimethylsulfoxide (DMSO) to the concentration of 600 ppm, and a solution in which each of Compounds (6) and (7) was dissolved in dimethylsulfoxide (DMSO) to the concentration of 20 ppm were prepared, and two microplates were prepared in which each 1.0 μL per well of the Compound DMSO solution and DMSO as a control were dispensed into two wells. In one microplate among them, each 100 μL of cell suspensions of the transformed budding yeast TM182-HIK1 which had been prepared by dilution with a Glu-Ura-Leu medium as described above was dispensed, and cultured by allowing to stand at 30° C. for 27 hours. In another microplate; as described above, as a control, each 100 μL of cell suspensions of the transformed budding yeast TM182-HIK1 which had been prepared by dilution with a Gal-Ura-Leu medium was dispensed, and cultured by allowing to stand at 30° C. for 27 hours. After culturing, the absorbance at 600 nm of each well was measured with a microplate reader.
Degree of growths of both of the transformed budding yeasts cultured in the presence of Compounds (1) to (7) and budding yeast as a control therefor are shown in Table 3. Degrees of growths of both of the transformed budding yeasts and budding yeast as a control thereof or are shown by a relative value in percentage, letting the absorbance of 600 nm at the concentration of the Compound of 0 ppm to be […]. It was confirmed that an inhibiting degree of growth of TM182-HIK1 by each test substance was greater than an inhibiting degree of growth of AH22-HIK1 by each test substance, and the TM182-HIK1 was a transformed cell with the enhanced sensitivity to an antifungal-compound as compared with AH22-HIK1.

| Structure (SMILES) | Degree of growth of budding yeast AH22-RsOS1 Glu-Leu medium ([1]; final concentration 6.0 ppm) [%] | Degree of growth of budding yeast AH22 Glu medium (AH22 strain; final concentration 6.0 ppm) [%] | Degree of growth of budding yeast (%) TM182-HIK1 Gal-Ura-Leu medium ([2]; final concentration 2.0 ppm) [%] | Degree of growth of budding yeast (%) TM182-HIK1 Glu-Ura-Leu medium ([2]; final concentration 2.0 ppm) [%] | Degree of growth of budding yeast AH22-RsOS1 Glu-Leu medium ([1]; final concentration 0.6 ppm) [%] | Degree of growth of budding yeast AH22 Glu medium (AH22 strain; final concentration 0.6 ppm) [%] | Degree of growth of budding yeast (%) TM182-HIK1 Gal-Ura-Leu medium ([2]; final concentration 0.2 ppm) [%] | Degree of growth of budding yeast (%) TM182-HIK1 Glu-Ura-Leu medium ([2]; final concentration 0.2 ppm) [%] | Degree of growth of budding yeast (%) TM182-HIK1 Gal-Ura-Leu medium ([2]; final concentration 6.0 ppm) [%] | Degree of growth of budding yeast (%) TM182-HIK1 Glu-Ura-Leu medium ([2]; final concentration 6.0 ppm) [%] |
| --- | --- | --- | --- | --- | --- | --- | --- | --- | --- | --- |
| CC(C)NC(=O)N1CC(=O)N(c2cc(Cl)cc(Cl)c2)C1=O [Compound (2), Iprodione] | 101 | 92 | 94 | 79 |  |  |  |  |  |  |
| N#Cc1c[nH]cc1-c1cccc2c1OC(F)(F)O2 [Compound (6), Fludioxonil] |  |  |  |  | 79 | 79 | 104 | 11 |  |  |
| COP(=S)(OC)Oc1c(Cl)cc(C)cc1Cl [Compound (5), Tolclofos-methyl] | 85 | 78 |  |  |  |  |  |  | 106 | 22 |
| O=[N+]([O-])c1c(Cl)c(Cl)c(Cl)c(Cl)c1Cl [Compound (4), Quintozene] | 89 | 83 |  |  |  |  |  |  | 97 | 63 |
| C=CC1(C)OC(=O)N(c2cc(Cl)cc(Cl)c2)C1=O (stereo not shown) [Compound (3), Vinclozolin] | 101 | 82 | 100 | 30 |  |  |  |  |  |  |
| CC12CC1(C)C(=O)N(c1cc(Cl)cc(Cl)c1)C2=O (stereo not shown) [Compound (1), Procymidone] | 103 | 88 | 100 | 62 |  |  |  |  |  |  |
| N#Cc1c[nH]cc1-c1cccc(Cl)c1Cl [Compound (7), Fenpiclonil] |  |  |  |  | 101 | 85 | 87 | 9 |  |  |

From patent US7452688B2, “Transformed cell with enhanced sensitivity to antifungal compound and use thereof” (Sumitomo Chemical Company, Limited, priority 2002, dated 2008)
